Laboratory results published in patent publication US20200229435A1, “ANTIMICROBIAL MIXTURE CONTAINING 4-(3-ETHOXY-4-HYDROXYPHENYL)BUTAN-2-ONE AND AN AMMONIUM COMPOUND, AND COSMETIC COMPOSITION CONTAINING SAME” (L'OREAL, priority 2017, published 2020).

Tests used:
Format in all cases: cell-based
[1] = system: Aspergillus niger ATCC 6275; assay: MIC / synergy (FIC index) microplate growth test, optical density at 620 nm, Aspergillus niger
Description: (§1) FIC Index=(MICa with B/MICa)+(MICb with A/MICb)
(§2) with: • MICa with B: minimum concentration of product A in the combination A+B which makes it possible to obtain an inhibitory effect • MICb with A: minimum concentration of product B in the combination A+B which makes it possible to obtain the inhibitory effect. • MICa: minimum inhibitory concentration of product A alone. • MICb: minimum inhibitory concentration of product B alone.
(§3) As regards the combinations tested, MICa with b and MICb with a are the respective concentrations of A and of B in the combinations which make it possible to obtain a microbial growth percentage of less than or equal to 25%.
(§4) When the FIC index value is less than or equal to 1, it is considered that the combination of test compounds has a synergistic effect.
The microbial strain Aspergillus niger ATCC 6275, and a double-concentration Sabouraud broth liquid culture medium supplemented with polyoxyethylenated (20 OE) sorbitan monopalmitate (Tween 40 from Croda) and Phytagel© BioReagent were used.
(§5) A 96-well microplate and an […] of 32.5° C. are used.
(§6) The incubation time of the microplate is: • from 24 hours to 48 hours aerobically for Aspergillus niger; • from 18 to 24 hours aerobically for Candida albicans and Pseudomonas aeruginosa.
(§7) A 10% (weight/volume) stock solution was prepared by mixing 1 g of compound in 9 ml of aqueous 1% agar solution. Successive dilutions were made with the 1% agar solution. • Tests of compounds A and B alone
(§8) 50 μL of each of the daughter solutions obtained containing compound A or B are added to the microplate wells. 100 μL of Sabouraud liquid nutrient broth seeded with the strain Aspergillus niger and 50 μL of aqueous 1% agar solution are also added thereto. • Tests of compounds A and B as a mixture
(§9) 50 μL of each of the daughter solutions obtained containing compound A and 50 μL of each of the daughter solutions obtained containing compound B are added to the microplate wells. 100 μL of Sabouraud liquid nutrient broth seeded at double concentration with the strain Aspergillus niger are also added thereto.
(§10) A positive microbial growth control was also prepared. The positive microbial growth control corresponds to a mixture of 100 μL of aqueous 1% agar solution with 100 μL of Sabouraud liquid nutrient broth seeded at double concentration with the strain Aspergillus niger in the absence of compounds A and B.
(§11) An absorbance control was performed in parallel on compounds A and B alone. This control corresponds to 100 μL of double concentration sterile Sabouraud liquid nutrient broth+100 μL of double concentration compound A or B.
In the two cases (test and control), the inoculum represents the concentration of the strain Aspergillus niger present in the final volume of the wells (200 μL) and is between 2 and 6×10^5 cfu/ml of Aspergillus niger.

[2] = system: Candida albicans ATCC 10231; assay: MIC / synergy (FIC index) microplate growth test, optical density at 620 nm, Candida albicans
Description: as §1, §2, §3, §4
The microbial strain Candida albicans ATCC 10231 and a double-concentration Sabouraud broth liquid culture medium were used.
as §5, §6, §7, §8, §9, §10, §11
(§12) The test as described above (tests, absorbance control and growth control) was performed again to test the combination A+B on the strains Candida albicans and Pseudomonas aeruginosa.

[3] = system: Pseudomonas aeruginosa ATCC 9027; assay: MIC / synergy (FIC index) microplate growth test, optical density at 620 nm, Pseudomonas aeruginosa
Description: as §1, §2, §3, §4
The microbial strain Pseudomonas aeruginosa ATCC 9027 and a double-concentration nutritive broth liquid culture medium were used.
as §5, §6, §7, §8, §9, §10, §11, §12

[4] = weight %, first concentration giving growth <= 25%

Molecule `CCOc1cc(CCC(C)=O)ccc1O` [A, 4-(3-ethoxy-4-hydroxyphenyl)butan-2-one] has a microbial growth percentage ([1]; Example 1, A 0.025 weight % alone) of 150%, a microbial growth percentage ([1]; Example 1, A 0.05 weight % alone) of 113% and a microbial growth percentage ([1]; Example 1, A 0.1 weight % alone) of 112%. The microbial growth percentage ([1]; Example 1, A 0.2 weight % alone) was 75%, the microbial growth percentage ([1]; Example 1, A 0.4 weight % alone) was 5% and the “% MIC of A alone” value ([1]; Example 1, weight %, first concentration giving growth <= 25%) was 0.4%. It also gave a microbial growth percentage ([1]; Example 2, A 0.025 weight % alone) of 212%, a microbial growth percentage ([1]; Example 2, A 0.05 weight % alone) of 92% and a microbial growth percentage ([1]; Example 2, A 0.1 weight % alone) of 68%. For the same molecule, the microbial growth percentage ([1]; Example 2, A 0.2 weight % alone) was 29%, the microbial growth percentage ([1]; Example 2, A 0.4 weight % alone) was 17% and the “% MIC of A alone” value ([1]; Example 2, weight %, first concentration giving growth <= 25%) was 0.4%. The microbial growth percentage ([2]; A 0.025 weight % alone) was 73%, the microbial growth percentage ([2]; A 0.05 weight % alone) was 73% and the microbial growth percentage ([2]; A 0.1 weight % alone) was 49%. The microbial growth percentage ([2]; A 0.2 weight % alone) was 9%, the “% MIC of A alone” value [2, 4] was 0.2% and the microbial growth percentage ([3]; A 0.0625 weight % alone) was 114%. For the same molecule, the microbial growth percentage ([3]; A 0.125 weight % alone) was 59%, the microbial growth percentage ([3]; A 0.25 weight % alone) was 65% and the microbial growth percentage ([3]; A 0.5 weight % alone) was 41%. For the same molecule, the microbial growth percentage ([3]; A 1 weight % alone) was 15% and the “% MIC of A alone” value [3, 4] was 1%.

With `CCCCCCCCCCCCCCCCCCCCCC[N+](C)(C)C.[Cl-]` [B1, behenyltrimethylammonium chloride] the microbial growth percentage ([1]; B1 0.049 weight % alone) was 186%, the microbial growth percentage ([1]; B1 0.1 weight % alone) was 155% and the microbial growth percentage ([1]; B1 0.2 weight % alone) was 78%. For the same molecule, the microbial growth percentage ([1]; B1 0.4 weight % alone) was 34%, the microbial growth percentage ([1]; B1 0.79 weight % alone) was 8% and the “% MIC of B1 alone” value [1, 4] was 0.79%. For the same molecule, the microbial growth percentage ([2]; B1 0.002 weight % alone) was 50%, the microbial growth percentage ([2]; B1 0.00395 weight % alone) was 1% and the “% MIC of B1 alone” value [2, 4] was 0.00395%. The microbial growth percentage ([3]; B1 0.001975 weight % alone) was 68%, the microbial growth percentage ([3]; B1 0.00395 weight % alone) was 93% and the microbial growth percentage ([3]; B1 0.0079 weight % alone) was 36%. For the same molecule, the microbial growth percentage ([3]; B1 0.0158 weight % alone) was 30%, the microbial growth percentage ([3]; B1 0.0316 weight % alone) was 1% and the “% MIC of B1 alone” value [3, 4] was 0.0316%.
